{"source": "patent US20030134846A1", "about": "“Treatment of trypanosoma brucei with farnesyl protein transferase inhibitors” (Schering Corporation, priority 2001, published 2003)", "origin": "cited, not measured here", "details": "patients treated for second stage infection; can lead to death", "data": [{"smiles": "Nc1nc(N)nc(Nc2ccc([As]3SCC(CO)S3)cc2)n1", "note": "(stereo not shown) [melarsoprol]", "values": [{"measurement": "reactive encephalopathy, occurrence in patients", "result": "5-10%"}]}]}
